The target of assay [1] is T1, Vitamin D3 receptor (Homo sapiens) (UniProt P11473).
T1 sequence (whole entry): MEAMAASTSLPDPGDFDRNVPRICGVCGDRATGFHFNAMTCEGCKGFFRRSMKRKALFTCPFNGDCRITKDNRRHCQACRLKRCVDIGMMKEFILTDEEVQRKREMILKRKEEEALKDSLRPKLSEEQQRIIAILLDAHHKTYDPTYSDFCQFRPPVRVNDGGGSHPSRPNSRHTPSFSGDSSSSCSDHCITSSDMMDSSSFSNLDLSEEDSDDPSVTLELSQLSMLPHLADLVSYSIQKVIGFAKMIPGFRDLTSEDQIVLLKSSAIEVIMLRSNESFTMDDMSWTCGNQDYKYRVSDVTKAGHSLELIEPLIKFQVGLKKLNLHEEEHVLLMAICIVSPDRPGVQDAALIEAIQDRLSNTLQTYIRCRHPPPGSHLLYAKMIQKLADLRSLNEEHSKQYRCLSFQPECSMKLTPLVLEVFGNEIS
The assay is described as follows: Binding of compound towards human Vitamin D3 receptor was determined in vitro.

In another assay the target is T2, Vitamin D3 receptor (Homo sapiens, UniProt P11473).
T2 sequence (P11473 whole entry): T1 sequence (whole entry)
In words: Effective concentration required for inhibition of Vitamin D3 receptor.

The values below come from ChEMBL document CHEMBL1149141, “Crystal structures of the vitamin D nuclear receptor liganded with the vitamin D side chain analogues calcipotriol and seocalcitol, receptor agonists of clinical importance. Insights into a structural basis for the switching of calcipotriol to a receptor antagonist by further side chain …” (J Med Chem, 2004).

Each structure is given as a SMILES string.

The compound `C=C1/C(=C\C=C2/CCC[C@]3(C)[C@@H]([C@H](C)/C=C/C=C/C(O)(CC)CC)CC[C@@H]23)C[C@@H](O)C[C@@H]1O` gave a Binding in assay [1] of 80%.

Usually EC50 stands for the concentration at which the effect is half-maximal. Low readings indicate an effect from little substance, high ones a need for much substance. `C=C1/C(=C\C=C2/CCC[C@]3(C)[C@@H]([C@H](C)/C=C/[C@@H](O)C4(/C=C/C(=O)OCC)CC4)CC[C@@H]23)C[C@@H](O)C[C@@H]1O`: the concentration for a half-maximal effect (EC50) at Vitamin D3 receptor is 350 pM.

`C=C1/C(=C\C=C2/CCC[C@]3(C)[C@@H]([C@H](C)/C=C/[C@@H](O)C4(C(=O)OCCCC)CC4)CC[C@@H]23)C[C@@H](O)C[C@@H]1O` yielded an EC50 on Vitamin D3 receptor of 400 pM.

The compound `C=C1/C(=C\C=C2/CCC[C@]3(C)[C@@H]([C@H](C)/C=C/[C@@H](O)C4CC4)CC[C@@H]23)C[C@@H](O)C[C@@H]1O` came in with a Binding in assay [1] of 90%.
